The test system of one test is other cell cultures. Put plainly: Omega-3 fatty acid concentrations in other cell cultures. It counts as cell-based. The note with it: compared with linolenic acid (18:3n-3).
The subject of test [1] is osteoblast cell line MC3T3-E1. Put plainly: Fatty acid compositional analysis of osteoblasts. Format: cell-based. On the procedure: (§1) Experiments are conducted to determine how SDA treatment of osteoblast-like cells in culture influence the polyunsaturated fatty acid (PUFA) composition. The osteoblast cell line MC3T3-E1 is cultured in growth medium (GM) consisting of DMEM supplemented with 10% fetal bovine serum (FBS), ascorbic acid, β-glycerol-phosphate, and 1% antimicrobial solution. The cells are plated in 24-well plates at a density of 1.2×10^4 cells per ml for 3 days until confluent. Once confluent, corresponding to the initialization of the osteoblastic phenotype, the medium is either changed for SDA or […] (LNA) treatment or cultured further in GM until subjected to the various treatments. At the end of the 3 day fatty acid treatment period, cultures are exposed to agents that induce COX-2 expression. The two agents utilized are forskolin (FSK) and interleukin-1 (IL-1). These agents are selected on the basis of their respective actions on the COX-2 gene. Forskolin, an activator of adenylate cyclase, increases cyclic-AMP (cAMP) concentrations. Interleukin-1, itself a bone resorption agent binding to its receptor on the cellular membrane, launches a cascade resulting in the activation of the transcription factor nuclear-factor κ-B (NFκB). Cyclic-AMP and NFκB both activate the expression of the COX-2 gene. Cyclic-AMP activates the expression of the COX-2 gene via the cAMP-response element binding protein (CREBP), which binds to the cAMP response element (CRE) in the COX-2 promoter. The COX-2 promoter also contains an NFκB binding element.
Fatty Acid Compositional Analysis of Osteoblasts. Osteoblast cells exposed to the PUFA treatments (SDA and LNA) are subjected to a gas chromotographic analysis of the FAME from extracted lipids of washed cells.

Test [2] deals with PGE2 production in osteoblasts. The test can be described thus: PGE2 formation in osteoblasts (enzyme immunoassay). It counts as cell-based. On the procedure: as §1, with “Interleukin-1, itself a bone resorption agent binding to its receptor on the cellular membrane, launches a cascade resulting in the activation of the transcription factor nuclear-factor κ-B (NFκB). Cyclic-AMP and NFκB both activate the expression of the COX-2 gene. Cyclic-AMP activates the expression of the COX-2 gene via the cAMP-response element binding protein (CREBP), which binds to the cAMP response element (CRE) in the COX-2 promoter. The COX-2 promoter also contains an NFκB binding element.” left out
Western Blot. […] Optical density is determined using Optimus image analyzing software (version 6.1). […]
PGE2 Formation. In the experiments, already detailed in the section on Western blotting, PGE2 levels in the medium of induced and non-induced cells are determined using an enzyme immunoassay kit (Cayman Chemical, Ann Arbor, Mich.).

Test [3] deals with Alkaline phosphatase (ALP) activity in osteoblast cells MC3T3-E1. The test can be described thus: Alkaline phosphatase (ALP) activity, method of Lowry. It counts as cell-based. Particulars: all time points evaluated; relative to linolenic acid. On the procedure:
as §1, with “Cyclic-AMP activates the expression of the COX-2 gene via the cAMP-response element binding protein (CREBP), which binds to the cAMP response element (CRE) in the COX-2 promoter. The COX-2 promoter also contains an NFκB binding element.” left out
Enzyme activity: Alkaline phosphatase (ALP) activity is determined by the method of Lowry.

Test [4] is described as follows: Beagle feeding study, diets supplemented with SDA or linolenic acid. The note with it: dogs, low essential fatty acid diet 90 days. Format: in vivo, beagles. From the text: Experiments are also designed to evaluate the effect of SDA on the pet, such as a dog or cat. As an example, beagles are provided with a low essential fatty acid diet for a period of 90 days. Diets supplemented with SDA or linolenic acid are provided for the subsequent 30 days.

Where [5] appears, read: then supplemented diet 30 days, compared to linolenic acid diet.

Each structure is given as a SMILES string.

Turning to `CC/C=C\C/C=C\C/C=C\C/C=C\CCCCC(=O)O` [SDA, 6Z, 9Z, 12Z, 15Z-octadecatetraenoic acid], in the test with other cell cultures, the “altering the concentrations of omega-3 fatty acid” value is listed as “more effective”. For the same compound, in test [1] (SDA at increasing treatment levels), the “concentrations of total omega-3 fatty acid in osteoblasts” value was “increased concentrations”. Also, in test [1] (SDA treatment of osteoblasts), the “22:5n-3 in osteoblasts” value is reported as “particularly elevates” and the EPA in osteoblasts entry is on record as “particularly elevates”. The “PGE2 production in osteoblasts” value in test [2] was “attenuate PGE2 production”. For the same compound, the “activity of alkaline phosphatase” value in test [3] was “highest activity”. For the same compound, the “arachidonic acid in plasma and liver” value in test [4] (then SDA supplemented diet 30 days) is “trend of decreased arachidonic acid”. In test [4] (setting [5]), the “concentrations of 22:5n-3 in red blood cell membranes, plasma, and liver tissue” value is listed as “elevated concentrations”; the “concentrations of EPA in red blood cell membranes, plasma, and liver tissue” value is on record as “elevated concentrations”.

Source of the values: patent publication US20090143468A1, “PET FOOD COMPOSITIONS AND METHODS” (priority 2004, published 2009).
